Experimental data taken from patent EP4722219A1 (Gan & Lee Pharmaceuticals Co., Ltd., priority 2023, dated 2024).

Columns and labels:
Format in all cases: cell-based
AR protein = molecular target: T1, AR protein (Homo sapiens, UniProt P10275); assay: AR protein degradation in VCaP cells (Western blot); settings: 8h
T1 construct: host or cells: VCaP
T1 sequence (P10275 1-920): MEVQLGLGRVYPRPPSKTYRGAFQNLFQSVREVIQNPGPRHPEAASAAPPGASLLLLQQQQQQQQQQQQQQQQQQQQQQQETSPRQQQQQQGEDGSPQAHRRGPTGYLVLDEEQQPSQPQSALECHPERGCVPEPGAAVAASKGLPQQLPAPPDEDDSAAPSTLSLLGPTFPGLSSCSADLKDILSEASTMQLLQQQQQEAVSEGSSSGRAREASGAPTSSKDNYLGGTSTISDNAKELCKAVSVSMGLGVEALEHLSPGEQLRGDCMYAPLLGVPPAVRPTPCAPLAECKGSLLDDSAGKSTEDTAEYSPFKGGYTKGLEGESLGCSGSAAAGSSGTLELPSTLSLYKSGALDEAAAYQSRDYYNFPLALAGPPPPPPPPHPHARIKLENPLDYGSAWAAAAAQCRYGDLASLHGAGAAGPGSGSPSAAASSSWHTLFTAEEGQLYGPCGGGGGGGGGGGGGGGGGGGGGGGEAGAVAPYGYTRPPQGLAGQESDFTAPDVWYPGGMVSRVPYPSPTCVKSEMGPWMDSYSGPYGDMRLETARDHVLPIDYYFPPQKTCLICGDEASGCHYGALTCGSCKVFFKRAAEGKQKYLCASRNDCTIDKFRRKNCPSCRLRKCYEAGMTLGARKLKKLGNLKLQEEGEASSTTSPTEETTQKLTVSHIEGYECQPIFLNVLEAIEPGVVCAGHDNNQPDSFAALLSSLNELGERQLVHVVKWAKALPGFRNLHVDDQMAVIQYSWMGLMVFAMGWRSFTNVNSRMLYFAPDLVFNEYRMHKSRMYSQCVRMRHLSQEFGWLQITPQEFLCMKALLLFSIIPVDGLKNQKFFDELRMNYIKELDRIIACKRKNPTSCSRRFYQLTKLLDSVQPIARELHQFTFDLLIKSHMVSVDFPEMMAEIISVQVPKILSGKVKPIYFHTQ
Method in brief: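 AR-positive VCaP human prostate cancer cells grown in DMEM with 10% FBS were plated in six-well plates at 3×10^5 cells/well and incubated overnight. Compounds were then added at 1 µL/well alongside a solvent control and incubated for 8h. Lysates in RIPA buffer with protease inhibitor were quantified by BCA and run by SDS-PAGE. AR was detected by Western blot, and degradation was calculated from band grayscale normalized to GAPDH.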

LNCaP cells = assay: Inhibition of LNCaP cell proliferation (WST-8); settings: LNCaP FGC cells, 96 hours
Method in brief: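 WST-8 absorbance at 450 nm measured proliferation after 96 h of compound exposure at 37 °C, 5% CO2. Dosing used nine 5-fold dilutions from a 10 µM top final concentration, applied to cells cultured overnight beforehand.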

VCaP cells = assay: Inhibition of VCaP cell proliferation (WST-8); settings: 168 hours
Method in brief: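 Proliferation was read on day 9 as WST-8 absorbance at 450 nm after VCaP cells (15,000/well, DMEM/10% FBS, 37°C) were exposed from day 2 to compound at 9 points, 5-fold serial dilution, top final concentration 10 µM.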

Compound | AR protein degradation rate at fixed concentration (%) at 0.0005 µM (AR protein; 0.5 nM) | AR protein degradation rate at fixed concentration (%) at 0.005 µM (AR protein; 5 nM) | IC50 (LNCaP cells; Homo sapiens) | IC50 (VCaP cells; Homo sapiens) | Degradation rate of AR protein in VCaP cells (AR protein; 0.5 nM) | Degradation rate of AR protein in VCaP cells (AR protein; 5 nM) | IC50 (LNCaP cells) | IC50 (VCaP cells)
COc1cc(O[C@H]2C(C)(C)[C@H](NC(=O)c3ccc(N4CCC(N5CCC6(CC5)COc5c6ccc6c5n(C)c(=O)n6C5CCC(=O)NC5=O)CC4)cc3)C2(C)C)ccc1C#N (stereo partly shown) [A-P-29] | 70% | 68% | 15.1 µM | 0.019 µM |  |  |  | 
C[C@H]1CC2(CCN(c3ccc(C(=O)N4CCC(CN5CCN6c7ccc(C(=O)N[C@H]8CCC(=O)NC8=O)cc7OC[C@@H]6C5)CC4)cc3)CC2)CN1c1ccc(C#N)c(Cl)c1 [A-P-69] |  |  | 0.28 µM | 1.32 µM | -9% | 18% |  | 
Cn1c(=O)n(C2CCC(=O)NC2=O)c2ccc3c(c21)OCC31CCN(C2CC3(CCN(c4ccc(C(=O)N[C@H]5CC[C@H](Oc6ccc(C#N)c(Cl)c6)CC5)nn4)CC3)C2)CC1 (stereo partly shown) [A-P-25] | 91% | 90% | 47.7 µM | 0.00014 µM |  |  |  | 
COc1cc(O[C@H]2C(C)(C)[C@H](NC(=O)c3ccc(N4CCC(CN5CCN(c6ccc(C(=O)N[C@H]7CCC(=O)NC7=O)c(F)c6)CC5)CC4)cc3)C2(C)C)ccc1C#N [ARV-766, reference compound] |  |  |  |  | 9% | 80% | 1.07 µM | 0.779 µM
COc1cc(O[C@H]2C(C)(C)[C@H](NC(=O)c3ccc(N4CCC(F)(CN5CCC6(CCc7cc(F)c(C(=O)N[C@H]8CCC(=O)NC8=O)cc7O6)CC5)CC4)cc3)C2(C)C)ccc1C#N [A-P-41] |  |  | 18.6 µM | > 10 µM | 13% | 18% |  | 
C[C@H]1CC2(CCN(c3ccc(C(=O)N4CCC(CN5CCC6(CCc7cc(C(=O)N[C@H]8CCC(=O)NC8=O)c(F)cc7O6)CC5)CC4)cc3)CC2)CN1c1ccc(C#N)c(Cl)c1 [A-P-35, 1'-((1-(4-((S)-2-(3-chloro-4-cyanophenyl)-3-methyl-2,8-diazaspiro[4.5]decan-8-yl)benzoyl)piperidin-4-yl)methyl)-N-((S)-2,6-dioxopiperidin-3-yl)-7-fluorospiro[chroman-2,4'-piperidin]-6-carboxamide] | 9% | 18% | 0.28 µM | 0.004 µM |  |  |  | 
C[C@H]1CC2(CCN(c3ccc(N4CCC(CN5CCC6(CCc7cc(C(=O)N[C@H]8CCC(=O)NC8=O)c(F)cc7O6)CC5)CC4)cc3)CC2)CN1c1ccc(C#N)c(Cl)c1 [A-P-42, 1'-((1-(4-((S)-2-(3-chloro-4-cyanophenyl)-3-methyl-2,8-diazaspiro[4.5]decan-8-yl)phenyl)piperidin-4-yl)methyl)-N-((S)-2,6-dioxopiperidin-3-yl)-7-fluorospiro[chroman-2,4'-piperidin]-6-carboxamide] | -40% | -4% | 0.19 µM | > 10 µM |  |  |  | 
COc1cc(O[C@H]2C(C)(C)[C@H](NC(=O)c3ccc(N4CCC(C)(CN5CCC6(CCc7cc(C(=O)N[C@H]8CCC(=O)NC8=O)c(F)cc7O6)CC5)CC4)cc3)C2(C)C)ccc1C#N [A-P-31, 1'-((1-((4-((1r,3r)-3-(4-cyano-3-methoxyphenoxy)-2,2,4,4-tetramethylcyclobutyl)carbamoyl)phenyl)-4-methylpiperidin-4-yl)methyl)-N-((S)-2,6-dioxopiperidin-3-yl)-7-fluorospiro[2,4'-piperidin]-6-carboxamide] | -13% | 41% | 0.58 µM | 3.17 µM |  |  |  | 
C[C@H]1CC2(CCN(c3ccc(N4CCC(CN5CCC6(CC5)COc5ccc7c(c56)n(C)c(=O)n7C5CCC(=O)NC5=O)CC4)cc3)CC2)CN1c1ccc(C#N)c(Cl)c1 (stereo partly shown) [A-P-26, 2-chloro-4-((3 S)-8-(4-(4-((3-((2,6-dioxopiperidin-3-yl))-1-methyl-2-oxo-2,3-dihydro-1H,7H-spiro[benzofuro[4,5-d]imidazole-8,4'-piperidin]-1'-yl)methyl)piperidin-1-yl)phenyl)-3-methyl-2,8-diazaspiro[4.5]decan-2-yl)benzonitrile] | -43% | 18% | 4.91 µM | 0.034 µM |  |  |  | 
COc1cc(O[C@H]2C(C)(C)[C@H](NC(=O)c3ccc(N4CCC(CN5CCC6(CC5)COc5c6ccc(C(=O)N[C@H]6CCC(=O)NC6=O)c5F)(OC)CC4)cc3)C2(C)C)ccc1C#N [A-P-86, 1'-((1-(4-(((1r,3r)-3-(4-cyano-3-methoxyphenoxy)-2,2,4,4-tetramethylcyclobutyl)carbamoyl)phenyl)-4-methoxypiperidin-4-yl)methyl)-N-((S)-2,6-dioxopiperidin-3-yl)-7-fluoro-2H-spiro[benzofuran-3,4'-piperidin]-6-carboxamide] |  |  | 0.39 µM | 1.79 µM | -30% | 1% |  | 
